In US8119563B2, “N-substituted azacycles” (FMC Corporation, priority 2003, dated 2012):

Test system: tobacco budworm (Heliothis virescens [Fabricius])
Assay: surface-treated diet test, insecticidal activity against tobacco budworm
Type: in vivo
Design: mortality: concentration or dose not given beside the values
Settings: 0.25 millimoles of candidate insecticide on the surface of the diet, second instar larvae, five-day exposure; for Percent Mortality / mortality: compared to total number of insects infested; for Percent Growth Inhibition / pest or weed control at 0.25 mmol/well: inhibition of insect weight relative to untreated controls; for mortality / pest or weed control at 0.25 mmol/well: Heliothis virescens, 120 h; for mortality: read-out: Percent Mortality; for pest or weed control at 0.25 mmol/well: read-out: Percent Growth Inhibition
Method: Candidate insecticides were evaluated for activity against the tobacco budworm (Heliothis virescens [Fabricius]) in a surface-treated diet test.
In this test one mL of molten (65-70° C.) wheat germ-based artificial diet was pipetted into each well of a four by six (24 well) multi-well plate (ID# 430345-15.5 mm dia.×17.6 mm deep; Corning Costar Corp., One Alewife Center, Cambridge, Mass. 02140). The diet was allowed to cool to ambient temperature before treatment with candidate insecticide.
For a determination of insecticidal activity, solutions of the candidate insecticides were prepared for testing using a Packard 204DT Multiprobe® Robotic System (Packard Instrument Company, 800 Research Parkway, Meriden, Conn. 06450), in which the robot first diluted a standard 50 millimolar DMSO solution of candidate insecticide with a 1:1 water/acetone solution (V/V) in a ratio of 1:7 stock solution to water/acetone. The robot subsequently pipetted 40 microliters of the so-prepared solution onto the surface of the diet in each of three wells in the 24 multi-well plate. The process was repeated with solutions of seven other candidate insecticides. Once treated, the contents of the multi-well plate were allowed to dry, leaving 0.25 millimoles of candidate insecticide on the surface of the diet, or a concentration of 0.25 millimolar. Appropriate untreated controls containing only DMSO on the diet surface were also included in this test.
For evaluations of the insecticidal activity of a candidate insecticide at varying rates of application, the test was established as described above using sub-multiples of the standard 50 millimolar DMSO solution of candidate insecticide. For example, the standard 50 millimolar solution was diluted by the robot with DMSO to give 5, 0.5, 0.05, 0.005, 0.0005 millimolar, or more dilute solutions of the candidate insecticide. In these evaluations there were six replicates of each rate of application placed on the surface of the diet in the 24 multi-well plate, for a total of four rates of application of candidate insecticide in each plate.
In each well of the test plate was placed one second instar tobacco budworm larvea, each weighing approximately five milligrams. After the larvae were placed in each well, the plate was sealed with clear polyfilm adhesive tape. The tape over each well was perforated to ensure an adequate air supply. The plates were then held in a growth chamber at 25° C. and 60% relative humidity for five days (light 14 hours/day).
After the five-day exposure period insecticidal activity for each rate of application of candidate insecticide was assessed as percent inhibition of insect weight relative to the weight of insects from untreated controls, and percent mortality when compared to the total number of insects infested.
The test compounds of formula I are identified by numbers that correspond to those in Table 1.

SMILES: OC1(C(c2ccc(C(F)(F)F)cc2)c2cc(F)cc(F)c2)CCN(Cc2ccc(Oc3ncccn3)cc2)CC1 (stereo not drawn) [Compound 11]
- Percent Mortality: 33%
- Percent Growth Inhibition: 100%

SMILES: OC1(C(c2ccc(C(F)(F)F)cc2)c2cccc(F)c2)CCN(Cc2ccc(Oc3ncccn3)cc2)CC1 (stereo not drawn) [Compound 12]
- Percent Mortality: 0%
- Percent Growth Inhibition: 100%

SMILES: OC1(C(c2ccc(C(F)(F)F)cc2)c2cc(Cl)ccc2Cl)CCN(Cc2ccc(Oc3ncccn3)cc2)CC1 (stereo not drawn) [Compound 13]
- Percent Mortality: 100%
- Percent Growth Inhibition: 100%

SMILES: OC1(C(c2ccc(C(F)(F)F)cc2)c2cccc(Cl)c2)CCN(Cc2ccc(Oc3ncccn3)cc2)CC1 (stereo not drawn) [Compound 14]
- Percent Mortality: 100%
- Percent Growth Inhibition: 100%

SMILES: OC1(C(c2ccc(C(F)(F)F)cc2)c2ccc(Cl)cc2Cl)CCN(Cc2ccc(Oc3ncccn3)cc2)CC1 (stereo not drawn) [Compound 15]
- Percent Mortality: 100%
- Percent Growth Inhibition: 100%

SMILES: OC1(C(c2ccc(C(F)(F)F)cc2)c2ccc(C(F)(F)F)cc2)CCN(Cc2ccc(Oc3ncccn3)cc2)CC1 [Compound 16]
- Percent Mortality: 100%
- Percent Growth Inhibition: 100%

SMILES: OC1(C(c2ccc(C(F)(F)F)cc2)c2ccc(F)c(F)c2)CCN(Cc2ccc(Oc3ncccn3)cc2)CC1 (stereo not drawn) [Compound 17]
- Percent Mortality: 83%
- Percent Growth Inhibition: 100%

SMILES: OC1(C(c2ccc(C(F)(F)F)cc2)c2ccccc2Cl)CCN(Cc2ccc(Oc3ncccn3)cc2)CC1 (stereo not drawn) [Compound 18]
- Percent Mortality: 100%
- Percent Growth Inhibition: 100%

SMILES: OC1(C(c2ccc(OC(F)(F)F)cc2)c2ccc(OC(F)(F)F)cc2)CCN(Cc2ccc(Oc3ncccn3)cc2)CC1 [Compound 19, 4-{bis[4-(trifluoromethoxy)phenyl]methyl}-1-[(4-pyrimidin-2-yloxyphenyl)methyl]piperidin-4-ol]
- mortality: 100%
- pest or weed control at 0.25 mmol/well: 100%

SMILES: OC1(C(c2ccc(OC(F)(F)F)cc2)c2ccc(OC(F)(F)F)cc2)CCN(Cc2ccc(-c3ncccn3)cc2)CC1 [Compound 20]
- Percent Mortality: 100%
- Percent Growth Inhibition: 100%

SMILES: OC1(C(c2ccc(OC(F)(F)F)cc2)c2ccc(OC(F)(F)F)cc2)CCN(Cc2ccc(Oc3ccccn3)cc2)CC1 [Compound 21, 4-{bis[4-(trifluoromethoxy)phenyl]methyl}-1-[(4-(2-pyridyloxy)phenyl)methyl]piperidin-4-ol]
- mortality: 100%
- pest or weed control at 0.25 mmol/well: 100%

SMILES: OC1(C(c2ccc(C(F)(F)F)cc2)c2ccc(C(F)(F)F)cc2)CCN(Cc2ccc(Oc3ccccn3)cc2)CC1 [Compound 22]
- Percent Mortality: 100%
- Percent Growth Inhibition: 100%

SMILES: CCn1nnc(-c2ccc(CN3CCC(O)(C(c4ccc(Cl)cc4)c4ccc(Cl)cc4)CC3)cc2)n1 [Compound 23]
- Percent Mortality: 100%
- Percent Growth Inhibition: 100%

SMILES: CCn1nnc(-c2ccc(CN3CCC(O)(C(c4cccc(Cl)c4)c4cccc(Cl)c4)CC3)cc2)n1 [Compound 24]
- Percent Mortality: 0%
- Percent Growth Inhibition: 98%

SMILES: CCn1nnc(-c2ccc(CN3CCC(O)(C(c4ccc(OC(F)(F)F)cc4)c4ccc(OC(F)(F)F)cc4)CC3)cc2)n1 [Compound 25]
- Percent Mortality: 100%
- Percent Growth Inhibition: 100%

SMILES: CCn1nnc(-c2ccc(CN3CCC(O)(C(c4ccc(Cl)c(Cl)c4)c4ccc(Cl)c(Cl)c4)CC3)cc2)n1 [Compound 26]
- Percent Mortality: 100%
- Percent Growth Inhibition: 100%

SMILES: CCn1nnc(-c2ccc(CN3CCC(O)(C(c4ccc(C(F)(F)F)cc4)c4ccc(C(F)(F)F)cc4)CC3)cc2)n1 [Compound 27]
- Percent Mortality: 100%
- Percent Growth Inhibition: 100%

SMILES: CCON=Cc1ccc(CN2CCC(O)(C(c3ccc(OC(F)(F)F)cc3)c3ccc(OC(F)(F)F)cc3)CC2)cc1 [Compound 28]
- Percent Mortality: 100%
- Percent Growth Inhibition: 100%

SMILES: CC(C)OC(=O)Nc1ccc(CN2CCC(O)(C(c3ccc(OC(F)(F)F)cc3)c3ccc(OC(F)(F)F)cc3)CC2)cc1 [Compound 29]
- Percent Mortality: 100%
- Percent Growth Inhibition: 100%

SMILES: OC1(C(c2ccc(OC(F)(F)F)cc2)c2ccc(OC(F)(F)F)cc2)CCN(Cc2ccc(Oc3ncccc3C(F)(F)F)cc2)CC1 [Compound 30]
- Percent Mortality: 100%
- Percent Growth Inhibition: 100%

SMILES: CCCOc1ccc(CN2CCC(O)(C(O)(c3ccc(OC(F)(F)F)cc3)c3ccc(OC(F)(F)F)cc3)CC2)cc1 [Compound 91]
- Percent Mortality: 100%
- Percent Growth Inhibition: 100%

SMILES: CCCOc1ccc(CN2CCC(O)(C(O)(c3ccc(C(F)(F)F)cc3)c3ccc(C(F)(F)F)cc3)CC2)cc1 [Compound 92]
- Percent Mortality: 100%
- Percent Growth Inhibition: 100%

SMILES: Cn1nnc(-c2ccc(CN3CCC(O)(C(O)(c4ccc(OC(F)(F)F)cc4)c4ccc(OC(F)(F)F)cc4)CC3)cc2)n1 [Compound 93, 4-{bis[4-(trifluoromethoxy)phenyl]hydroxymethyl}-1-{[4-(2-methyl(1,2,3,4-tetrazol-5-yl))phenyl]methyl}piperidin-4-ol]
- mortality: 100%
- pest or weed control at 0.25 mmol/well: 100%

SMILES: [O-][N+]1(Cc2ccc(Oc3ccccn3)cc2)CCC(O)(C(c2ccc(C(F)(F)F)cc2)c2ccc(C(F)(F)F)cc2)CC1 (stereo not drawn) [Compound 111]
- Percent Mortality: 100%
- Percent Growth Inhibition: 100%

SMILES: [O-][N+]1(Cc2ccc(Oc3ncccn3)cc2)CCC(O)(C(c2ccc(OC(F)(F)F)cc2)c2ccc(OC(F)(F)F)cc2)CC1 (stereo not drawn) [Compound 112, 4-{bis[4-(trifluoromethoxy)phenyl]methyl}-4-hydroxy-1-[(4-pyrimidin-2-yloxyphenyl)methyl]piperidin-1-oxide]
- mortality: 100%
- pest or weed control at 0.25 mmol/well: 100%

SMILES: CCn1nnc(-c2ccc(C[N+]3([O-])CCC(O)(C(c4ccc(C(F)(F)F)cc4)c4ccc(C(F)(F)F)cc4)CC3)cc2)n1 (stereo not drawn) [Compound 113]
- Percent Mortality: 100%
- Percent Growth Inhibition: 100%

SMILES: CCn1nnc(-c2ccc(C[N+]3([O-])CCC(O)(C(c4ccc(OC(F)(F)F)cc4)c4ccc(OC(F)(F)F)cc4)CC3)cc2)n1 (stereo not drawn) [Compound 114]
- Percent Mortality: 100%
- Percent Growth Inhibition: 100%

SMILES: [O-][N+]1(Cc2ccc(Oc3ncccn3)cc2)CCC(O)(C(c2ccc(Cl)c(F)c2)c2ccc(Cl)c(F)c2)CC1 (stereo not drawn) [Compound 115]
- Percent Mortality: 50%
- Percent Growth Inhibition: 100%

SMILES: [O-][N+]1(Cc2ccc(-c3ncccn3)cc2)CCC(O)(C(c2ccc(OC(F)(F)F)cc2)c2ccc(OC(F)(F)F)cc2)CC1 (stereo not drawn) [Compound 116]
- Percent Mortality: 100%
- Percent Growth Inhibition: 100%

SMILES: [O-][N+]1(Cc2ccc(Oc3ccccn3)cc2)CCC(O)(C(c2ccc(OC(F)(F)F)cc2)c2ccc(OC(F)(F)F)cc2)CC1 (stereo not drawn) [Compound 117, 4-{bis[4-(trifluoromethoxy)phenyl]methyl}-4-hydroxy-1-[(4-(2-pyridyloxy)phenyl)methyl]piperidin-1-oxide]
- mortality: 100%
- pest or weed control at 0.25 mmol/well: 100%

SMILES: CCON=Cc1ccc(C[N+]2([O-])CCC(O)(C(c3ccc(OC(F)(F)F)cc3)c3ccc(OC(F)(F)F)cc3)CC2)cc1 (stereo not drawn) [Compound 118]
- Percent Mortality: 100%
- Percent Growth Inhibition: 100%

SMILES: CC(C)OC(=O)Nc1ccc(C[N+]2([O-])CCC(O)(C(c3ccc(OC(F)(F)F)cc3)c3ccc(OC(F)(F)F)cc3)CC2)cc1 (stereo not drawn) [Compound 119]
- Percent Mortality: 100%
- Percent Growth Inhibition: 100%

SMILES: [O-][N+]1(Cc2ccc(Oc3ncccn3)cc2)CCC(O)(C(c2ccc(C(F)(F)F)cc2)c2ccc(C(F)(F)F)cc2)CC1 (stereo not drawn) [Compound 120]
- Percent Mortality: 100%
- Percent Growth Inhibition: 100%

SMILES: CCCOc1ccc(C[N+]2([O-])CCC(O)(C(O)(c3ccc(C(F)(F)F)cc3)c3ccc(C(F)(F)F)cc3)CC2)cc1 (stereo not drawn) [Compound 121]
- Percent Mortality: 100%
- Percent Growth Inhibition: 100%

SMILES: Cn1nnc(-c2ccc(C[N+]3([O-])CCC(O)(C(O)(c4ccc(OC(F)(F)F)cc4)c4ccc(OC(F)(F)F)cc4)CC3)cc2)n1 (stereo not drawn) [Compound 122]
- Percent Mortality: 100%
- Percent Growth Inhibition: 100%

SMILES: CCCOc1ccc(C[N+]2([O-])CCC(O)(C(O)(c3ccc(OC(F)(F)F)cc3)c3ccc(OC(F)(F)F)cc3)CC2)cc1 (stereo not drawn) [Compound 123]
- Percent Mortality: 100%
- Percent Growth Inhibition: 100%
